Measured values taken from patent US6673365B1, “Formulation for treatment of thromboembolism” (priority 1996, dated 2004).

Test: Bioavailability in vivo in the rat after intraduodenal administration
Method: The formulations, A to D, respectively, were tested in vivo in the rat model using intraduodenally catheterized, nonanesthetized animals. Formulations were given as a bolus. Blood samples were withdrawn at certain time points for up to 4 hours after administration of the different formulations. The concentrations of HOOC—CH2—(R)-Cgl-Aze-Pab were analyzed in the plasma and the bioavailabilities calculated from the Area under the curve (AUC) using standard pharmacokinetic methods (Rowland and Tozer, Clinical Pharmacokinetics, concepts and applications, 1980).
The bioavailability increased tenfold to twentyfold when the different formulations mentioned in the invention were used, as compared to controls where only phosphate buffer of pH 8 was used (1). Formulation B was also tested in human healthy subjects using enteric coated capsules for administration directly to the duodenum. The results from the human study also indicate a tenfold increased absorption as compared to a control tablet or solution of the thrombin inhibitor base only.

Enhancing effect, glycerides from different sources compared: most efficient enhancing effect
Compound: CCCCCCCC(=O)OCC(O)CO (stereo not shown) [glyceryl mono-octanoate(1-monocaprylin), glyceryl mono-octanoate]
